{"source": "paper PMC12281487", "about": "“Discovery and Validation of a Novel Class of Necroptosis Inhibitors Targeting RIPK1” (ACS Chemical Biology, 2025)", "key": {"[1]": {"test_system": "RIPK1 Ser166 phosphorylation", "assay": "Western blot of RIPK1 Ser166 phosphorylation in I2.1 cells", "format": "cell-based, human", "settings": "prior treatment with 10 μM compound", "description": "All compound treatments were performed with a preprepared 1000× stock of the desired concentration in DMSO and added directly to the relevant plate, with a final concentration of 0.1% DMSO on the cells. TNF (final concentration 575 pM) was added to induce necroptosis, the cells incubated for 4 h and harvested.\nCells were transferred to a microcentrifuge tube and centrifuged at 200g for 5 min, and media were removed. Cells were washed with PBS and lysed with 100 μL of lysis buffer (radioimmunoprecipitation assay lysis buffer, Sigma-Aldrich, R0278) supplemented with 1× phosphatase inhibitor cocktail 2 (Sigma, P5726) and 1× complete EDTA-free protease inhibitor cocktail (Sigma, […])) on ice for 30 min. The lysate was collected by centrifugation at 17,000g, 4 °C for 5 min, and the lysate was transferred to a new microcentrifuge tube. Protein concentration was determined using the DC Protein Assay (Bio-Rad) in a 96-well plate as per the manufacturer’s instructions and subsequently adjusted to 1 mg mL^–1 using lysis buffer. Samples were prepared by adding 4 μL of 4× loading buffer (Biorad, 161-0747) containing β-mercaptoethanol to 12 μL of protein sample and boiling at 95 °C for 10 min. 14 μL of each sample was loaded onto a 4–15% Mini-PROTEAN TGX precast gel (Biorad, 456-1086) and run in 1× running buffer (0.25 M Tris, 0.2 M glycine, 0.1% (w/v) SDS) for 1.15 h at 130 V. Either 2 μL of precision plus protein all blue prestained protein standards (Bio-Rad, 1610373) or precision plus protein dual color standards (Bio-Rad, 1610374) was used in at least one well.\nProteins were transferred onto a nitrocellulose membrane (GE Healthcare) using the Trans-Blot Turbo Transfer System (Biorad, 1704150) at 2.5 A and 25 V for 7 min. The membrane was stained with Ponceau S to confirm protein transfer prior to blocking with 5% (w/v) nonfat dried skimmed milk in TBS-T (1× Tris-buffered saline, 0.1% (v/v) Tween-20) at rt for 1 h. Staining with the desired primary antibody in 5% (w/v) nonfat dried skimmed milk in TBS-T was performed overnight at 4 °C. The blot was washed with TBS-T at rt (3 × 5 min) and stained with secondary antibody in 5% (w/v) nonfat dried skimmed milk in TBS-T for 1 h at rt. The blot was washed with TBS-T at rt (3 × 5 min), visualized with Immobilon Crescendo Western HRP substrate, and imaged using ImageQuant LAS-4000 Imaging System (Fujifilm), and the contrast normalized in Fiji."}, "[2]": {"test_system": "I2.1 FADD–/– human Jurkat cells", "assay": "IncuCyte necroptosis assay in I2.1 cells", "settings": "Homo sapiens, Jurkat, read-out: EC50 (95% CI), necroptosis inhibition", "quoted_text": "A cell-based assay was established to monitor necroptosis in I2.1 cells using the IncuCyte S3 live cell microscopy platform (Figure S1a). Necroptosis was induced by treatment with TNF, and Sytox Green was used to monitor membrane permeabilization over time as an indicator of progressive necroptotic cell death (Figure S1b–d), allowing determination of the EC50 of candidate necroptosis inhibitors.\nI2.1 cells were seeded in a sterile 96-well plate (Greiner) at 20,000 cells per well and incubated at 37 °C overnight. The cells were treated with a final concentration of 600 pM TNF, 1 μM Sytox Green, and compounds in a dose-dependent manner. Wells containing TNF and Sytox Green served as positive control. Wells containing DMSO and Sytox Green served as a negative control. The plate was placed into an IncuCyte S3 Live Cell Analysis System (Sartorius) and readings for phase and green fluorescence were taken every hour for 24 h, with 4 images per well. The images were analyzed with IncuCyte 2021C software and the Green Integrated Intensity Per Image/Phase Area Per Image (GCU × μm^2/image/μm^2/image or GP) was exported. The background at t = 0 h was subtracted, and the linear slope (t = 3–7 h) was calculated by plotting GP against time. The percent inhibition of necroptosis was determined by normalizing to the positive and negative controls and graphing against the [compound]. EC50 values were determined using Prism 10 for each replicate, which were then used to calculate the geometric mean EC50 and associated 95% CIs.\nI2.1 cells in a 96-well plate were treated with TNF to induce necroptosis, a dilution series of the candidate necroptosis inhibitor and Sytox Green to monitor cell death. Plates were placed in the IncuCyte® and imaged every hour for 24 h. Cell death was measured over time and used to determine the proportion of necroptotic cells compared to those without necroptosis induction or not treated with an inhibitor. The linear portion of the graph was used to determine an initial rate for calculation of the EC50. TNF with Sytox Green and Sytox Green alone were used as positive and negative controls, respectively. […] EC50 values are expressed as the geometric mean with a 95% confidence interval (CI) of at least three biological replicates."}}}
{"smiles": "CN1C(=O)C(Cc2c[nH]c3ccccc23)NC1=S", "note": "(centres unmarked) [Nec-1, Necrostatin 1]", "values": [{"measurement": "phosphorylation of RIPK1 Ser166 after TNF", "setting": "[1]", "result": "blocked"}, {"measurement": "EC50", "setting": "[2]", "result": 750, "unit": "nM"}]}
